Experiments:
[1] = target: Serine/threonine-protein kinase WNK3 (Homo sapiens) (UniProt Q9BYP7); assay: WNK3(h) Eurofins kinase panel; details: Compound concentration 1.0 uM
[2] = target: T1, Serine/threonine-protein kinase STK11 (Homo sapiens) (UniProt Q15831); assay: LKB1(h) Eurofins kinase panel; details: Compound concentration 1.0 uM
T1 sequence (whole entry): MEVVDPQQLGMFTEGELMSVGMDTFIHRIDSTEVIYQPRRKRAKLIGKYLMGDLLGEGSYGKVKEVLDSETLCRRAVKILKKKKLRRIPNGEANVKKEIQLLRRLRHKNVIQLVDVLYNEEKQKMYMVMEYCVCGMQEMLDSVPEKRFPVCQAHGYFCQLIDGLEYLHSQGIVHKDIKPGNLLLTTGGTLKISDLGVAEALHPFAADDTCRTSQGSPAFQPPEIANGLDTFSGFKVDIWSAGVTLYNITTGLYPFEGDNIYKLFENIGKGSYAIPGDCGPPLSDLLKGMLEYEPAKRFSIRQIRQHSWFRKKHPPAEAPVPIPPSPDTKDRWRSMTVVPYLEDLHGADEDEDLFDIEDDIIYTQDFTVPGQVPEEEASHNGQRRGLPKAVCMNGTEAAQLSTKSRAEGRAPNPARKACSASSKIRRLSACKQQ

[3] = target: Fibroblast growth factor receptor 1 (Homo sapiens) (UniProt P11362); assay: FGFR1(h) Eurofins kinase panel; details: Compound concentration 1.0 uM
[4] = target: T2, Inhibitor of nuclear factor kappa-B kinase subunit beta (Homo sapiens) (UniProt O14920); assay: IKKbeta(h) Eurofins kinase panel; details: Compound concentration 1.0 uM
T2 sequence (whole entry): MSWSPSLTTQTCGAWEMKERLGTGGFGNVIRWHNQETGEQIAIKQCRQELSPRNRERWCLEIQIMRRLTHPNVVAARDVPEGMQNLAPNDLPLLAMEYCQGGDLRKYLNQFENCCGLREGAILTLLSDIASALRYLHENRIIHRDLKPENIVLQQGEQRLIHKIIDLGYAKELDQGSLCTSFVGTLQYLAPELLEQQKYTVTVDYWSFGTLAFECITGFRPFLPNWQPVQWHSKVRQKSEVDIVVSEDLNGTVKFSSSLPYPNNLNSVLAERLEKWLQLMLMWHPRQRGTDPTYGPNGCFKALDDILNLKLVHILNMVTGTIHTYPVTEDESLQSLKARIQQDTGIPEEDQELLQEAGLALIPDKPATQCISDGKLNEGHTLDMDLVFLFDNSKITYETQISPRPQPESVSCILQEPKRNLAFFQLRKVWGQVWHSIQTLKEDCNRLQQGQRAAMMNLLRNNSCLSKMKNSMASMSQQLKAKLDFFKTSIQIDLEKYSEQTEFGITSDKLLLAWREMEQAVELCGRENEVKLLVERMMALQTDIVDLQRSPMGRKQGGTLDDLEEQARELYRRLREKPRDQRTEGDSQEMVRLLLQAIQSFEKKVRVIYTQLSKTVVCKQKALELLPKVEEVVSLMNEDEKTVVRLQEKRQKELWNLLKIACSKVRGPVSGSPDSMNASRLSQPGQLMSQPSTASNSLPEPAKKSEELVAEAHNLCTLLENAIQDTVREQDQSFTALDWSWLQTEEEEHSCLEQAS

[5] = target: Casein kinase I isoform gamma-2 (Homo sapiens) (UniProt P78368); assay: CK1gamma2(h) Eurofins kinase panel; details: Compound concentration 1.0 uM
[6] = target: Protein kinase C beta type (Homo sapiens) (UniProt P05771); assay: PKCbetaII (h) Eurofins kinase panel; details: Compound concentration 1.0 uM
Sequence of Protein kinase C beta type (Homo sapiens) (P05771 2-671 limits assumed): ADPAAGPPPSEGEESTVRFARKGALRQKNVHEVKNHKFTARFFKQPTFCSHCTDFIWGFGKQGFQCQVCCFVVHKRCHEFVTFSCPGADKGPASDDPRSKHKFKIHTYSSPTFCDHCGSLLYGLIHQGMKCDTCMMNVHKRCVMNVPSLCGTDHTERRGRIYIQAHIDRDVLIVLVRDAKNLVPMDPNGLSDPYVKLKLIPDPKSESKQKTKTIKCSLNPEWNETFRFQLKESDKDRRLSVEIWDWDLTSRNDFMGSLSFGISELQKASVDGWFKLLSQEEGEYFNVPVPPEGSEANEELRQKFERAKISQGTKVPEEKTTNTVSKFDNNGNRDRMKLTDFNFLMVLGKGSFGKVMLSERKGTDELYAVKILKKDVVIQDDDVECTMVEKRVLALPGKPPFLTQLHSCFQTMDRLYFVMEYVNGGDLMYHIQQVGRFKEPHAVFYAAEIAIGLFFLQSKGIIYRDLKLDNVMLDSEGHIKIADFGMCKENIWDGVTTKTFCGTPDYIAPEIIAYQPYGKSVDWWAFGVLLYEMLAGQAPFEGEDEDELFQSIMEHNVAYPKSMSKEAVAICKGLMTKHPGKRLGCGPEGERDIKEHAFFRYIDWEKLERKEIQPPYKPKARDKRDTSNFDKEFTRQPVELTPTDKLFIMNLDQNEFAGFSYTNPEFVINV

[7] = target: Cyclin-dependent kinase 1/cyclin B (Homo sapiens) (UniProt P06493+P14635+Q8WWL7+O95067); assay: CDK1/cyclinB(h) Eurofins kinase panel; format: protein-complex assay; details: Compound concentration 1.0 uM
[8] = target: Wee1-like protein kinase (Homo sapiens) (UniProt P30291); assay: Wee1(h) Eurofins kinase panel; details: Compound concentration 1.0 uM
[9] = target: Death-associated protein kinase 1 (Homo sapiens) (UniProt P53355); assay: DAPK1(h) Eurofins kinase panel; details: Compound concentration 1.0 uM
Sequence of Death-associated protein kinase 1 (Homo sapiens) (P53355 whole entry, looked up): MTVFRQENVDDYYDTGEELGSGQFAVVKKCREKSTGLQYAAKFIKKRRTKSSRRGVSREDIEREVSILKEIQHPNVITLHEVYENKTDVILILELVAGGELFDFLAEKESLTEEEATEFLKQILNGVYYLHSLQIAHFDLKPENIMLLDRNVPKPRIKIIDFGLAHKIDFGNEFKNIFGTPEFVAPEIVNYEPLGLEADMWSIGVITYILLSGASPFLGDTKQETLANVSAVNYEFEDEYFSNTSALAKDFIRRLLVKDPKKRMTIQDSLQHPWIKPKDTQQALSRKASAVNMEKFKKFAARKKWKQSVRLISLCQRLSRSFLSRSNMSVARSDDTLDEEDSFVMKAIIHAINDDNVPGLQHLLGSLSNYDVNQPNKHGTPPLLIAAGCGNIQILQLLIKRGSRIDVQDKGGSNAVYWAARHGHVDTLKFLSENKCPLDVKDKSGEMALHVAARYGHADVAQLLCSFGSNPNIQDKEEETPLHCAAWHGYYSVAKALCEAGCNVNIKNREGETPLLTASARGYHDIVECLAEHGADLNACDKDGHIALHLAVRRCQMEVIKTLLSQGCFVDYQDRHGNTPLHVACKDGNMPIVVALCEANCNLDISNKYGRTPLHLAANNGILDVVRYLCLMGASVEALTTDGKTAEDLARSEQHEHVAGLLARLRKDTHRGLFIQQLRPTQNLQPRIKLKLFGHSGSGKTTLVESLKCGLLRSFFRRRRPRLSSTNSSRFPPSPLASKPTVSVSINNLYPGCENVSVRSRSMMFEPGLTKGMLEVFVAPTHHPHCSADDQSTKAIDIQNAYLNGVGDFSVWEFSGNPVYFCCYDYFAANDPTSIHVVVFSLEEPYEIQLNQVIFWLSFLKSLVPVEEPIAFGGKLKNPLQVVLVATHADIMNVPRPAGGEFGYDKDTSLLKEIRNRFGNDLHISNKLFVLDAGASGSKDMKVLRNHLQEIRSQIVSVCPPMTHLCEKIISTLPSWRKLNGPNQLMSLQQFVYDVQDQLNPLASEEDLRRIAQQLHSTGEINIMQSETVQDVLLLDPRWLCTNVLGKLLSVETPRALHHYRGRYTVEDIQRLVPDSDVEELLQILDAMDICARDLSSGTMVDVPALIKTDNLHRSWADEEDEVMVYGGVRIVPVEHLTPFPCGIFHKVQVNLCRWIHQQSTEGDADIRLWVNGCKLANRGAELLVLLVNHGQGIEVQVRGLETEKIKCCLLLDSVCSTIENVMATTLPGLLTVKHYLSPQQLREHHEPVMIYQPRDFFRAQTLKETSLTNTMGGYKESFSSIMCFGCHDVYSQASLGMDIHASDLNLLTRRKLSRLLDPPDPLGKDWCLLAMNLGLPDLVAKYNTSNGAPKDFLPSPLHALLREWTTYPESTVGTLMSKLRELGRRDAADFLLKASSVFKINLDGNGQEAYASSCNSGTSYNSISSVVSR

Raji = assay: RAJI cell line Proliferation assay; format: functional, Homo sapiens; details: time 3 day
[10] = target: Dual specificity mitogen-activated protein kinase kinase 2 (Homo sapiens) (UniProt P36507); assay: MEK2(h) Eurofins kinase panel; details: Compound concentration 1.0 uM
[11] = target: Receptor tyrosine-protein kinase erbB-2 (Homo sapiens) (UniProt P04626); assay: ErbB2(h) Eurofins kinase panel; details: Compound concentration 1.0 uM
[12] = target: Protein-tyrosine kinase 2-beta (Homo sapiens) (UniProt Q14289); assay: Pyk2(h) Eurofins kinase panel; details: Compound concentration 1.0 uM
[13] = target: Transient receptor potential cation channel subfamily M member 7 (Homo sapiens) (UniProt Q96QT4); assay: ChaK1(h) Eurofins kinase panel; details: Compound concentration 1.0 uM
[14] = target: STE20-like serine/threonine-protein kinase (Homo sapiens) (UniProt Q9H2G2); assay: SLK(h) Eurofins kinase panel; details: Compound concentration 1.0 uM
[15] = target: Eukaryotic elongation factor 2 kinase (Homo sapiens) (UniProt O00418); assay: eEF-2K(h) Eurofins kinase panel; details: Compound concentration 1.0 uM
[16] = target: Serine/threonine-protein kinase SIK2 (Homo sapiens) (UniProt Q9H0K1); assay: SIK2(h) Eurofins kinase panel; details: Compound concentration 1.0 uM
Sequence of Serine/threonine-protein kinase SIK2 (Homo sapiens) (Q9H0K1 whole entry, looked up): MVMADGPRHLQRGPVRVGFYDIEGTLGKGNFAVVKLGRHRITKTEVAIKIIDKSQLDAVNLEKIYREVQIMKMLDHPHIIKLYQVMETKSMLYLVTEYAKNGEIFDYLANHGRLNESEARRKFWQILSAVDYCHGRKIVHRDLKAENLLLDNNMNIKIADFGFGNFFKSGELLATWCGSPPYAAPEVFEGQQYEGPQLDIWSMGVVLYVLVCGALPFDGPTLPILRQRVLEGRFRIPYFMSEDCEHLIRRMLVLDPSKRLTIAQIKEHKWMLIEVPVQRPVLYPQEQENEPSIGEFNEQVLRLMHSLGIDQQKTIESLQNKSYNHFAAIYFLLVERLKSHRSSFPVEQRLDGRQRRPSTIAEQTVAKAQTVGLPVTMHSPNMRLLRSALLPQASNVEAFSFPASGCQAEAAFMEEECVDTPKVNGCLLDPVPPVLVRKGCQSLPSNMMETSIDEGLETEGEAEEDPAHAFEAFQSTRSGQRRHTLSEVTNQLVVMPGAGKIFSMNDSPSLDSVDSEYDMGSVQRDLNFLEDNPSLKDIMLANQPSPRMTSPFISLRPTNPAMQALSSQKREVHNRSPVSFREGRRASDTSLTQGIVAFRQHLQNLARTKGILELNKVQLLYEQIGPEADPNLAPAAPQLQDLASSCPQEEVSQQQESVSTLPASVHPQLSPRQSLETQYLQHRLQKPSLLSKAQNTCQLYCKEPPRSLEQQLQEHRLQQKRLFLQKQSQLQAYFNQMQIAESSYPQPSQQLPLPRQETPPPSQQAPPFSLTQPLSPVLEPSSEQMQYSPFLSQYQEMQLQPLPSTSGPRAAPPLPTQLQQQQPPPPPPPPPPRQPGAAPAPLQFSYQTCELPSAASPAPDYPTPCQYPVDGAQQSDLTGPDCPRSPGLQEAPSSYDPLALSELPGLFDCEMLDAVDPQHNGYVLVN

[17] = target: T3, Serine/threonine-protein kinase Nek11 (Homo sapiens) (UniProt Q8NG66); assay: NEK11(h) Eurofins kinase panel; details: Compound concentration 1.0 uM
T3 sequence (whole entry): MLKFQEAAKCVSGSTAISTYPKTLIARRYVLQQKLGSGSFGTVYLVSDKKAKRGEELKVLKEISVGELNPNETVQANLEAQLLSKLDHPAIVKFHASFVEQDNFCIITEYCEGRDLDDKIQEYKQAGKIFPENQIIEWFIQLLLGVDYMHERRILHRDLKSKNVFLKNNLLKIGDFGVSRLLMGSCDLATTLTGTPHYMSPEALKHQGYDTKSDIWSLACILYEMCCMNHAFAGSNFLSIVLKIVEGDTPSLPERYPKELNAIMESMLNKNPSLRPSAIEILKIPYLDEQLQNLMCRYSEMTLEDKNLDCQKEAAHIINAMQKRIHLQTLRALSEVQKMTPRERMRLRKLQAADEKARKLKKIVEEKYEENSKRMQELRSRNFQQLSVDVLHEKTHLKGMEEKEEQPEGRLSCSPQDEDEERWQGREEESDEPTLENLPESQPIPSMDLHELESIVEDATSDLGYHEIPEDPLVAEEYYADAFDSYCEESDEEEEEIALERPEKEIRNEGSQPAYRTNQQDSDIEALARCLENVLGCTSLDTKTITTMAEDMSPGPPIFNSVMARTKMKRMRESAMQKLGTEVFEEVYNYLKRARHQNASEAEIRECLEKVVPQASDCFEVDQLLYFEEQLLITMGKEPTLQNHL

[18] = target: Serine/threonine-protein kinase tousled-like 2 (Homo sapiens) (UniProt Q86UE8); assay: TLK2(h) Eurofins kinase panel; details: Compound concentration 1.0 uM
[19] = target: Protein kinase C theta type (Homo sapiens) (UniProt Q04759); details: Compound concentration 1000.0 nM

Sequence of Serine/threonine-protein kinase WNK3 (Homo sapiens) (Q9BYP7 whole entry): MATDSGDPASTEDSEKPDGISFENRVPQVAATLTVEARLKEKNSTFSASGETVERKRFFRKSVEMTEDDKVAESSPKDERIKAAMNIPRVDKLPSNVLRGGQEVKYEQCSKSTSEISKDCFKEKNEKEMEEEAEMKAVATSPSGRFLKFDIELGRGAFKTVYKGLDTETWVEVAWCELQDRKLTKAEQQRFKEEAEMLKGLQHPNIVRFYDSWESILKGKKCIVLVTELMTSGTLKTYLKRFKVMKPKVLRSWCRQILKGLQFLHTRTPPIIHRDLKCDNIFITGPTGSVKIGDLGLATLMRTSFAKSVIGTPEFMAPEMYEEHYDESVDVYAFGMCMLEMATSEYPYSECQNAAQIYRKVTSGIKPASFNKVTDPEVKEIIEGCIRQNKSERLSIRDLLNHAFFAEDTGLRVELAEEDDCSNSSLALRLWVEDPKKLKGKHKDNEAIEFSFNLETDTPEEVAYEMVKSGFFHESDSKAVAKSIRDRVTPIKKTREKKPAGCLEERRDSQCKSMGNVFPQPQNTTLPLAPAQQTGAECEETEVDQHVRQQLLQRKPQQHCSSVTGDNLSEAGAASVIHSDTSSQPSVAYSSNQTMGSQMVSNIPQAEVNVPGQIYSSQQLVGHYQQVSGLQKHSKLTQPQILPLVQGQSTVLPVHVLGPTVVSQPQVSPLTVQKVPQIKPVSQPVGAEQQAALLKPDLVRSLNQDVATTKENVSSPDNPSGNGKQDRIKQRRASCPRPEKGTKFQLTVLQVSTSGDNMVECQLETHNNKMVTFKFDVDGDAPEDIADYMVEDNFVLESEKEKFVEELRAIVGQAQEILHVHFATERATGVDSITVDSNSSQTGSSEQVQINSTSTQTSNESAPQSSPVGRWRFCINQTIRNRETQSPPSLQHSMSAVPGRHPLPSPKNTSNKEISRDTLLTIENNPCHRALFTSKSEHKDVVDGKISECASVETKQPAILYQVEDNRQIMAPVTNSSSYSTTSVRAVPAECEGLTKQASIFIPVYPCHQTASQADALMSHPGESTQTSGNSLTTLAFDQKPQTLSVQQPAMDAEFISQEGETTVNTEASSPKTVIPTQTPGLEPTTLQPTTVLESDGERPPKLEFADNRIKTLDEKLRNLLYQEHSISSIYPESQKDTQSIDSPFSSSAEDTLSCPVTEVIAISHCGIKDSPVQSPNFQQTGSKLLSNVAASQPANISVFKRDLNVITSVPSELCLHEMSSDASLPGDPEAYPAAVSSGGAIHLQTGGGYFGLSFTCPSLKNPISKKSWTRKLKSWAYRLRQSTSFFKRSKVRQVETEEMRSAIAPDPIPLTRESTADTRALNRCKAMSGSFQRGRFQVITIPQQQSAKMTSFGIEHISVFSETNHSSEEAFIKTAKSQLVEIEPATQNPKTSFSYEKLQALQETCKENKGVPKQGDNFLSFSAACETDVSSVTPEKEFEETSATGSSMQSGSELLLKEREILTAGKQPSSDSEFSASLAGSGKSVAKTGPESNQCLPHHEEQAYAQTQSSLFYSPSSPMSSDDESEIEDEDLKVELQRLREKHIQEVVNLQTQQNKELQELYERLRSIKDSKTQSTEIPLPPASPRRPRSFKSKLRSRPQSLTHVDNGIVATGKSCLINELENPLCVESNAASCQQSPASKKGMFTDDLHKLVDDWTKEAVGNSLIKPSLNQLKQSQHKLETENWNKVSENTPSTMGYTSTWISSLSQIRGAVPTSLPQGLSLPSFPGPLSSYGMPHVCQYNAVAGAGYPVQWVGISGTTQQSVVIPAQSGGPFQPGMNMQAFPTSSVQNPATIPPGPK

CCc1ccccc1C(=O)Nc1n[nH]c2c(C)c(F)c(C3C(C#N)=C(C)N(C)C(C)=C3C#N)cc12 [BAY-3827]
% residual kinase activity [1]: 103% | % residual kinase activity [2]: 90% | % residual kinase activity [3]: 61% | % residual kinase activity [4]: 106% | % residual kinase activity [5]: 98% | % residual kinase activity [6]: 42% | % residual kinase activity [7]: 98% | % residual kinase activity [8]: 96% | % residual kinase activity [9]: 100% | Cell Proliferation IC50 (Raji): >33 µM | % residual kinase activity [10]: 112% | % residual kinase activity [11]: 95% | % residual kinase activity [12]: 76% | % residual kinase activity [13]: 100% | % residual kinase activity [14]: 101% | % residual kinase activity [15]: 141% | % residual kinase activity [16]: 68% | % residual kinase activity [17]: 103% | % residual kinase activity [18]: 96%

CC1=C(C#N)C(c2ccc3c(c2)c(NC(=O)c2ccccc2C)nn3C)C(C#N)=C(C)N1 [BAY-974]
residual activity [19]: 55%

— ChEMBL document CHEMBL4507319 (2021)
